Results: patent publication US20240262845A1, “PYRIDINIUM SALTS, METHODS OF MAKING, AND METHODS OF USE” (UNIVERSITY OF WYOMING, priority 2023, published 2024)
Counter-ions that a name gives are not always drawn.

Columns and labels:
[1] = Fluorescence lifetime and emission measurements; assay type: physicochemical; details: 10 μM in H2O, 375 nm excitation
Method: The emission spectra were generated by excitation of a 10 μM solution of either pyridinium salt 2a or pyridinium salt 2b in H2O. Analyses were performed at 375 nm excitation with an emission slit width of 5 nm and an excitation slit width of 5 nm. The emission wavelength was gathered from 400 nm to 600 nm.
FIGS. 9A-9D show fluorescence decay spectra of pyridinium salts 2a and 2b in selected solvents according to at least one embodiment of the present disclosure. Specifically, FIG. 9A is a fluorescence decay spectrum of pyridinium salt 2a in 1,2-dichloroethane, FIG. 9B is a fluorescence decay spectrum of pyridinium salt 2a in CH3CN, FIG. 9C is a fluorescence decay spectrum of pyridinium salt 2a in H2O, and FIG. 9D is a fluorescence decay spectrum of pyridinium salt 2b in H2O. The fluorescent decay spectra were generated with a 1-10 μM solution of pyridinium salt (10 μM for H2O and 1 μM for other solvents) using a GG420 long pass filter and a 375 nm excitation wavelength. The instrument response factor was measured using a highly diluted solution of LUDOX AS-30 colloidal silica in water and a ND1.0 filter. The concentration of LUDOX and the emission slit width were adjusted until the intensity of the instrument response function (IRF) was similar to the fluorescent decay intensity. The procedure given in the EasyLife X User's Manual was followed.

Exenatide = Exenatide (Heloderma suspectum, UniProt P26349); assay: Photochemical labeling of exenatide with pyridinium salt (General Procedure B, LC/MS); assay type: biochemical; details: trypsin digest
Method: General Procedure B: Photochemical Irradiation of Peptides and Proteins: To a 2 mL Pyrex LC/MS vial (Thermo model #03-391-39) were sequentially added solutions containing the desired biomolecule, glutathione (GSH), pyridinium salt, and ammonium acetate (NH4OAc). The resulting solution was diluted to a final volume of 500 μL and then sparged using nitrogen for a minimum of 30 minutes prior to irradiation. The actively sparging solution was then placed in an EvoluChem™ PhotoRedOx Box photoreactor that was equipped with a Kessil, PR160 427 nm LED Lamp and was then irradiated (100% lamp intensity) for the designated time at room temperature while maintaining active sparging. The resultant reaction mixture was then analyzed directly by LC/MS. […]
Labeling of Exenatide with Pyridinium Salt 2a (Exenatide-2a Conjugate). […] The resulting reaction mixture was directly analyzed by LC/MS using method A and was estimated to have proceeded in 70% conversion. […]
General Trypsin Digest Protocol B: For non-cystine bridged labeled proteins, a standard trypsin digest was modified as follows. […] The digested mixture was analyzed directly by LC/MS and MS/MS using method C.
Exenatide-2a Conjugate. […] The digested mixture was analyzed directly by LC-MS and MS/MS. […]

Exenatide, sequence (P26349 48-86 limits assumed): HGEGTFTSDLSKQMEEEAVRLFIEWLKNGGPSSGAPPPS

Row | SMILES | relative fluorescence quantum yield ΦF1 of pyridinium salt 2b: pyridinium salt 2a [1] | Modified Trp (Exenatide)
1 | COc1ccc2cc(-c3cc(C)[n+](N(C)C(=O)OCCCCC[C@H]4SC[C@H]5NC(=O)N[C@H]54)c(C)c3)ccc2c1 (stereo in doubt) [pyridinium salt 2b, 4-(6-methoxynaphthalen-2-yl)-2,6-dimethyl-1-(methyl(((5-((3aR,4R,6aS)-2-oxohexahydro-1H-thieno[3,4-d]imidazol-4-yl)pentyl)oxy)carbonyl)amino)pyridin-1-ium tetrafluoroborate] | 3.3 | 
2 | COC(=O)N(C)[n+]1c(C)cc(-c2ccc3cc(OC)ccc3c2)cc1C [pyridinium salt 2a, 1-((methoxycarbonyl)(methyl)amino)-4-(6-methoxynapthalen-2-yl)-2,6-dimethylpyridin-1-ium tetrafluoroborate] |  | Trp-025
